In patent US6319910A, “Method for inhibiting cyclooxygenase-2 and tumor necrosis factor alpha” (Hospital for Joint Diseases, priority 1998, dated 2001):
“Also recorded” adds a separate entry of the source. Read-outs that look alike come from different tables or passages of the source.

Experiments:
[1] = molecular target: T1, COX-2 (Mus musculus, UniProt Q05769); assay: COX-2 specific activity in cell-free extracts of LPS-stimulated RAW 264.7 cells (PGE2 by RIA); format: biochemical, murine
T1 construct: using total unfractionated cell extracts; endogenous in cells; host or cells: RAW 264.7 cells, LPS-induced; cell-free extract
T1 sequence (Q05769 18-604): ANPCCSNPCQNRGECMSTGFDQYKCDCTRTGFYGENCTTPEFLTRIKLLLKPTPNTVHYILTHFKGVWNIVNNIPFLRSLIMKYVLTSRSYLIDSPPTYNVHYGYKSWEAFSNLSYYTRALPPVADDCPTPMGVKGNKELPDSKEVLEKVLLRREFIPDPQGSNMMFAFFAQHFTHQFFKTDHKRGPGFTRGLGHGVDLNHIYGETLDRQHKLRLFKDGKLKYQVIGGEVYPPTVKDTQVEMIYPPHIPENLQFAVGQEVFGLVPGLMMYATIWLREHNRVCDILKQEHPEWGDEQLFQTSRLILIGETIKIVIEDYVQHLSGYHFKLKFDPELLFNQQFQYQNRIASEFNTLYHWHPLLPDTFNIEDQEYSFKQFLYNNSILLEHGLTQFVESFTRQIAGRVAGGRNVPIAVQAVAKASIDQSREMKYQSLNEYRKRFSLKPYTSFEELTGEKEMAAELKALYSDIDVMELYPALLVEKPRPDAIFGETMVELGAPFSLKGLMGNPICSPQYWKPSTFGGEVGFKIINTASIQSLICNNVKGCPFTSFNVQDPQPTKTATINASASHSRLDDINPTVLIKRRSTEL
Procedure: Raw 264.7 cells were stimulated with LPS and cell-free extracts were prepared as follows. RAW 264.7 cells were induced with LPS (100 ng/ml) in the presence or absence of tetracyclines or hydrocortisone for 14-20 hours. Following induction, the cells were pelleted at 4° C. and resuspended in Tris buffer: 10 mM, pH 7.4 containing 10 μg/ml each of chymostatin, antipain, leupeptin and pepstatin, 1 mM DDT and 1 mM PMSF. Cells were lysed in a Polytron PA 1200 homogenizer (Kinematica AG, Switzerland) with the cocktail of protease inhibitors after 3 cycles of rapid freeze-thawing. The lysate was centrifuged at 18,000 at 4° C. in an eppendorf centrifuge, and the resulting supernatant was used as cell-free extracts. The protein was measured by BCA assay reagent (Pierce, Rockford, Ill.) using BSA as standard. […] The specific enzyme activity was defined as ng of PGE2 released/mg protein/37° C. for 20 minutes.
RAW 264.7 cells were stimulated with 1 μg/ml of LPS for 16 hours and cell-free extracts were prepared as described above. The extracts were incubated with different modulators for 20 minutes at 37° C. before adding the substrate to initiate the enzyme reaction, which was terminated after 30 minutes by heat inactivation. The data represent one of the two experiments, the PGE2 analysis from each sample was done in triplicates n=3. The p value is a comparison between control and experimentals.

[2] = system: OA-affected cartilage; assay: Spontaneous nitrite/nitric oxide release by OA-affected cartilage (ex vivo organ culture); format: cell-based, human; details: for Effect on NO production: human OA-affected cartilage, words
Procedure: (§1) Human osteoarthritis affected cartilage spontaneously release nitric oxide (NO) and PGE2 in the medium as previously reported (Amin et al, 1995a; 1997a). The OA-organ cultures were set up as described (Amin et al, 1995a; 1997a). Briefly, total knee articular cartilage from tibial plateau and femoral condyle were harvested from OA-affected patients. The cartilage was mixed and cut into 3-mm discs and 4-6 discs were placed in triplicate or quadruplicate, in a 24-well plate in 2.0 ml of Ham's F-12 medium supplemented with 0.2% endotoxin free human albumin, 10 mM Hepes pH 7.4 and antibiotics in the presence of various modulators, as previously described (Amin et al, 1995a; 1997a). CMT-8 was used at pharmacologically relevant concentrations in DMSO (<0.01% final concentration) as carrier. An equivalent amount of DMSO was also added in the control cultures.
(§2) The p value between control and CMT-8 treated values for PGE2≤0.1 (insignificant) whereas the p values between NMMA treated cartilage and CMT-8 treated cartilage was ≤0.001 (significant). The data are represented as mean±SD as examined by T test when n=3. Data represent±SD value as determined by Student's t test n=4. The P values described are compared with control unstimulated OA-cartilage. The data represents one of the two similar experiments. P values for PGE2 and Nitrite=^a≤0.5; ^b≤0.1; ^c≤0.05; ^d≤0.01.

[3] = system: TNFα; assay: TNFα release in the medium by HEK 293 cells permanently transfected with human proTNFα (ELISA); format: cell-based; details: words; for Effect on spontaneous TNFα release: FIG. 8, 16 hours
Procedure: HEK 293 cells were transfected with the proTNFα cDNA (wild) to prepare a stable cell line. […] A mutant form of proTNFα cDNA which could not be cleaved by the endogenous TNFα convertase (TACE) to release soluble TNFα was also transfected in separate human HEK 293 cells. The soluble TNFα was estimated by ELISA from the wild type and mutant transfected cells from the medium (FIG. 6).
HEK 293 cells were grown as previously described by American Type Culture Collection (ATCC). […] The HEK 293 cells were incubated with CMT-3 to examine the effects of CMT-3 on TNFα release in the medium.
HEK 293 cells were grown under the conditions previously described by ATCC. Various compounds, including CMT-3 and doxycycline/minocyclines were incubated with proTNFα transfected HEK 293 cells releasing TNFα in the medium at 16 hours. […] Soluble TNFα was estimated by ELISA from the medium.

[4] = system: COX-2; assay: COX-2 expression in cells/cartilage (general statement); format: cell-based; details: words
[5] = system: iNOS mRNA; details: Amin et al, 1997b; words; cited from earlier work
[6] = words; cited from earlier work
[7] = system: OA-affected cartilage; assay: Spontaneous PGE2 release by OA-affected cartilage (ex vivo organ culture); format: cell-based, human; details: for Effect on PGE2 production: human OA-affected cartilage, words
Procedure: as §1, §2

[8] = system: RAW 264.7 cells; assay: Nitrite (NO) production/accumulation in LPS-stimulated RAW 264.7 cells; format: cell-based, murine; details: LPS 100 ng/ml, 16 hours
Procedure: (§3) Murine macrophages (RAW 263.7 cells) which were grown in Dulbecco's modified eagle medium (DMEM) containing 10% fetal bovine serum, 2 mM glutamine, 50 U/ml penicillin and 50 μg/ml streptomycin, were stimulated with 100 ng/ml LPS to induce both NOS and COX-2 at 16 hr. […] The data presented in FIG. 1 represents mean±SD as examined by T test were n=3.
(§4) The effects of CMTs 1, 2, 3, 5 and 8 on PGE2 and NO accumulation in RAW 264.7 cells were further evaluated as described above for CMT-3. […]

[9] = system: bovine chondrocytes; assay: PGE2 production in LPS stimulated bovine chondrocytes (radioimmunoassay); format: cell-based; details: FIGS. 3 and 9, words; for Effect on PGE2 production: LPS 100 μg/ml, 72 hrs
Procedure: After 48 hours the medium was changed and the cells were incubated with CMT-3 or N-monomethyl arginine (NMMA) for 2 hours before stimulating them with 100 μg/ml LPS. DMSO was used as a carrier for the modulators and the DMSO concentration was maintained (<0.01% v/v) in the cultures. Equivalent amounts of DMSO was also added to the control cultures. The levels of COX-2 dependent PGE2 release was assayed after 72 hrs by radioimmunoassay. […] The data represents mean±SD which was evaluated by T test where n=3.

[10] = system: bovine chondrocytes; assay: Nitrite (NO) production in LPS stimulated bovine chondrocytes; format: cell-based; details: FIGS. 3 and 9; LPS 100 μg/ml; words
[11] = system: RAW 264.7 cells; assay: PGE2 production/accumulation in LPS-stimulated RAW 264.7 cells; format: cell-based, murine; details: for activation at 40 µg/mL: Mus musculus, RAW264.7, 16 h, printed in parentheses = increase
Procedure: as §3, §4

[12] = system: arthritis; details: mild and moderate arthritis; Tilley et al, 1995; words; cited from earlier work
[13] = system: OA; details: prophylactic administration; Yu et al (1992); words; cited from earlier work
[14] = system: NOS; details: background; words; cited from earlier work
[15] = system: OA-affected cartilage; details: Amin et al, 1997a; words; cited from earlier work
[16] = system: OA-affected cartilage; details: Amin et al, 1997a; words; cited from earlier work; remark: listed apart in the source

Compound: C[C@H]1c2cccc(O)c2C(O)=C2C(=O)[C@]3(O)C(O)=C(C(N)=O)C(=O)C[C@@H]3[C@@H](O)[C@@H]21 [CMT-8, 6-α-deoxy-5-hydroxy-4-dedimethylaminotetracycline]
- Effect on specific activity of COX-2 ([1]; CMT-3 27 μM, CMT-8 27 μM, aspirin 56 μM, indomethacin 28 μM, words): significantly inhibited the specific activity of COX-2
- COX-2 Specific Activity ([1]; Table 3, cell-free extracts, 10 μg (aspirin amount not given)): 4.3 ± 0.1 PGE2 ng/mg protein
- inhibition at 5 µg/mL ([2]; Homo sapiens, Table 2, 5 μg/ml): 40%
- Nitrite ([2]; Table 2, 5 μg/ml): 47.0 ± 22.0 µM
- Effect on NO production [2]: inhibits NOS and NO production; also recorded: significantly inhibit; also recorded: inhibited both NO and PGE2 production; also recorded: inhibiting NO production
- Effect on spontaneous TNFα release [3]: inhibit the spontaneous TNFα release
- Inhibition of TNFα (summary statement) ([3]; HEK 293 cells transfected with proTNFα cDNA, low levels): inhibiting TNFα
- Effect on COX-2 expression [4]: inhibits COX-2 expression and PGE2 production
- Effect on iNOS mRNA expression [5]: inhibiting iNOS mRNA expression
- Antimicrobial activity [6]: no antimicrobial activity
- inhibition at 5 µg/mL ([7]; Homo sapiens, Table 2, 5 μg/ml): 58%
- PGE2 ([7]; Table 2, 5 μg/ml): 94.7 ± 39.2 ng/mL
- Effect on PGE2 production [7]: inhibits PGE2 in a dose dependent manner; also recorded: significantly inhibit; also recorded: inhibited both NO and PGE2 production; also recorded: inhibits COX-2 expression and PGE2 production
- Nitrite ([8]; Experiment I, compound 10 μg/ml): 36.0 µM
- inhibition at 10 µg/mL ([8]; Mus musculus, RAW264.7, 16 h, Experiment I, compound 10 μg/ml): 28%
- Effect on PGE2 production [9]: inhibit NO and PGE2 production
- Effect on L-NMMA induced PGE2 up-regulation [9]: inhibits the L-NMMA induced PGE2 up-regulation
- Effect on NO production [10]: inhibit NO and PGE2 production
- PGE2 accumulation ([11]; 16 h, 10 ug/mL): 27.2 ± 3.4 ng/mL
- PGE2 accumulation ([11]; Experiment II, LPS 100 ng/ml, compound 10 μg/ml, 16 hours): 24.3 ± 4.5 ng/mL

Compound: CN(C)c1ccc(O)c2c1C[C@H]1C[C@H]3[C@H](N(C)C)C(O)=C(C(N)=O)C(=O)[C@@]3(O)C(O)=C1C2=O [Minocycline, minocycline, reference compound]
- inhibition at 10 µg/mL ([2]; Homo sapiens, Table 2, minocycline 10 μg/ml): 30%
- Nitrite ([2]; Table 2, minocycline 10 μg/ml): 66.0 ± 17.0 µM
- Effect on NO production ([2]; listed as minocycline): suppresses NO production; also recorded: inhibit NO production
- Effect on spontaneous TNFα release [3]: inhibit TNFα release
- Effect on COX-2 expression [4]: up-regulate COX-2 expression and PGE2 production
- PGE2 ([7]; Table 2, minocycline 10 μg/ml): 314.6 ± 58.4 ng/mL
- Effect on PGE2 production [7]: stimulates PGE2 production
- Effect on PGE2 production ([7]; listed as minocycline): up-regulate COX-2 expression and PGE2 production
- Nitrite ([8]; Experiment I, minocycline 40 μg/ml): 4.8 µM
- Nitrite ([8]; Experiment II, minocycline 40 μg/ml): 12.9 µM
- inhibition at 40 µg/mL ([8]; Mus musculus, RAW264.7, 16 h, read-out: Nitrite % Inhibition, Experiment I, minocycline 40 μg/ml): 90%
- inhibition at 40 µg/mL ([8]; Mus musculus, RAW264.7, 16 h, read-out: Nitrite % Inhibition, Experiment II, minocycline 40 μg/ml): 41%
- Safety and efficacy in arthritis [12]: safe and effective for patients with mild and moderate arthritis
- PGE2 accumulation ([11]; Experiment I, LPS 100 ng/ml, minocycline 40 μg/ml, 16 hours): 43.7 ± 8.6 ng/mL
- PGE2 accumulation ([11]; Experiment II, LPS 100 ng/ml, minocycline 40 μg/ml, 16 hours): 49.1 ± 10.0 ng/mL
- activation at 40 µg/mL ([11]; read-out: PGE2 % (Increase), Experiment I, LPS 100 ng/ml, minocycline 40 μg/ml): 172%
- activation at 40 µg/mL ([11]; read-out: PGE2 % (Increase), Experiment II, LPS 100 ng/ml, minocycline 40 μg/ml): 257%

Compound: C[C@H]1c2cccc(O)c2C(O)=C2C(=O)[C@]3(O)C(O)=C(C(N)=O)C(=O)[C@@H](N(C)C)[C@@H]3[C@@H](O)[C@@H]21 [Doxycycline, doxycycline, reference compound]
- Effect on NO production [2]: inhibit NO production
- Effect on spontaneous TNFα release [3]: inhibit TNFα release
- Effect on COX-2 expression [4]: up-regulate COX-2 expression and PGE2 production
- Effect on PGE2 production [7]: up-regulate COX-2 expression and PGE2 production
- Severity of OA [13]: markedly reduced the severity of OA

Compound: CN=C(N)NCCC[C@H](N)C(=O)O [L-NMMA, N^G -monomethyl-L-arginine acetate, reference compound]
- Effect on PGE2 production [14]: augmenting PGE2 production
- Effect on production of NO [14]: inhibit the production of NO
- Effect on NO production ([8]; FIG. 1, words): blocks NO production
- Effect on NOS and NO production [15]: inhibits NOS and NO production
- Effect on PGE2 production [9]: augments PGE2 production
- Effect on PGE2 production [16]: augments PGE2 production
- Effect on NO production [10]: inhibits NO production
- Effect on PGE2 production ([11]; FIG. 1, LPS 100 ng/ml, 16 hours, words): augments PGE2 production
